In the METLIN SMRT retention time set (Domingo-Almenara et al. 2019):

Experiment: gradient 5% acetonitrile 3 min, to 50% in 2 min, to 85% in 15 min, held 3 min, 100 µL/min
Settings: column: Zorbax Extend-C18 2.1 x 50 mm; eluents: water / acetonitrile, 0.1% formic acid
How it was run: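 Pure standards were analyzed in mixtures of ~100 molecules using HPLC coupled to a quadrupole time-of-flight mass spectrometer, in both positive and negative ionization mode. Separation used a Zorbax Extend-C18 column (2.1 × 50 mm, 1.8 μm) at 100 μL/min, with water and acetonitrile each containing 0.1% formic acid. Dead and dwell volumes were 40 μL and 900 μL, and data were collected over 3 months. Retention time was read from computationally picked adduct peaks, each inspected manually.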

| RP-LC retention time [s] | SMILES |
| --- | --- |
| 993 | COc1ccc(Br)cc1CNC(=O)CCC(=O)N1Cc2cccn2-c2ccccc21 |
| 966 | Cc1ccc(-c2cc(NC(=O)Cc3ccsc3)on2)s1 |
| 633 | CCn1cc(CN2CC(Oc3ccc(-c4noc(-c5ccncc5)n4)cc3)C2)cn1 |
| 734 | CCc1cc(=O)n(CC(=O)N2CCc3ccccc32)c(N2CCOCC2)n1 |
| 636 | CCN1CCN(CCNC(=O)c2sc3cc(Cl)ccc3c2OC)CC1 |
| 678 | COc1ccc(-c2cn3c(CC(=O)NCc4cccs4)csc3n2)cc1OC |
| 778 | CCCc1c(C(=O)O)nnn1-c1ccc(Cl)cc1 |
| 1050 | Cc1nc(-c2cn(C)c3ncccc23)sc1C(=O)Nc1cc(F)cc(F)c1 |
| 660 | NS(=O)(=O)c1ccc(CCNC(=O)C2CN(c3nc4c(F)cccc4s3)C2)cc1 |
| 585 | CCN1CCN(C(=O)C(C)n2c3ccccc3c3cnn(C)c(=O)c32)CC1 (stereo unspecified) |
| 785 | O=C(Nc1ccc(F)cc1)C1CC(=O)N(CCc2c[nH]c3ccc(F)cc23)C1 (stereo unspecified) |
| 618 | CCOC(=O)c1c(C)[nH]c(CCC(=O)NCCN2CCCCC2C)c1C (stereo unspecified) |
| 1020 | Cc1ccc(-c2cc3c4nnc(SCC(=O)Nc5ccccc5C(F)(F)F)n4ccn3n2)cc1C |
| 1130 | Cc1cccc(Sc2nccnc2N2CCC(C(=O)N3CCCCCC3)CC2)c1 |
| 839 | COC(=O)c1cccc(Nc2c(-c3ccc([N+](=O)[O-])cc3)nc3cnccn23)c1 |
| 840 | COC(=O)CCC(=O)Nc1nc(-c2ccccc2)cs1 |
| 586 | CN1c2cc(C(=O)NC3CCN(Cc4ccccc4)CC3)ccc2C(=O)N2CCCCC21 (stereo unspecified) |
| 677 | O=C(Nc1cc(F)ccc1F)Nc1c(-c2ccccc2)nc2ccccn12 |
| 1130 | O=S(=O)(Cc1c(F)cccc1Cl)N1CCc2nc(-c3ccc(F)cc3)ncc2C1 |
| 1110 | Cc1cc(C)c(C)c(S(=O)(=O)N2CCC(OCc3noc(C4CCCO4)n3)CC2)c1C (stereo unspecified) |
| 671 | CCCC(=O)Nc1ccc2c(c1)CN(C(=O)c1ccccc1)C(C(=O)N(C)C)C2 (stereo unspecified) |
| 584 | CC(=O)N1CCC(C(=O)Nc2nccs2)CC1 |
| 630 | CCCC(=O)N(C)CC1CCOCC1 |

| RP-LC retention time [s] | SMILES |
| --- | --- |
| 768 | Cc1ccc(Sc2nccnc2N2CCCC(C(=O)N3CCN(c4ccccn4)CC3)C2)cc1 (stereo unspecified) |
| 686 | O=C(c1cn2ccnc(-c3ccccc3)c2n1)N1CCN(C(=O)c2ccco2)CC1 |
| 693 | COC(=O)[C@H](CCSC)NC(=O)c1ccc(-n2cnnn2)cc1 |
| 816 | CCOc1ccc(NC(=O)C2CCN(S(=O)(=O)c3ccc4c(c3)CCCC(=O)N4)CC2)cc1 |
| 705 | Cc1ccc(C2NC(=O)c3ccccc3N2)s1 (stereo unspecified) |
| 809 | Cc1cccc(N2CCN(C(=O)c3csc(C(=O)NC4CC4)n3)CC2)c1 |
| 918 | CCN1C(=O)c2cccnc2Sc2cc(NC(=O)c3ccc(C)cc3C)ccc21 |
| 898 | CCOc1ccc(NC(=O)N2CCc3cn(CCOC)c4cccc(c34)C2)cc1 |
| 790 | CCN1CCCCc2cc(C(=O)NC3CCS(=O)(=O)C3)sc21 (stereo unspecified) |
| 754 | CCOc1cc(=O)n2c(c1C(=O)Nc1ccc(SC)cc1)CCCC2 |
| 655 | O=C(Nc1ccc2c(c1)OCCO2)C1CCN(C(=O)c2cc(-c3cccnc3)n[nH]2)CC1 |
| 733 | COc1cccc(CNC(=O)N2CCCC2c2c(C)noc2C)c1 (stereo unspecified) |
| 654 | CCOc1ccc(S(=O)(=O)N2CCC(C(=O)N3CCN(C)CC3)CC2)cc1C |
| 738 | CCN(CC)S(=O)(=O)c1ccc(C(=O)Nc2nc3c(s2)CCc2ccccc2-3)cc1 |
| 824 | O=C(NC1CCCCC1)C1CC(=O)N(c2ccc3c(c2)CCN3C(=O)C2CCC2)C1 (stereo unspecified) |
| 1090 | O=C(CN1C(=O)C(C(=O)N2CCCCCC2)Sc2ccccc21)NC1CCCCC1 (stereo unspecified) |
| 765 | COc1cc(-n2nnc(C(=O)NCc3ccco3)c2N)ccc1Cl |
| 657 | O=C(NCc1[nH]nc2ccccc12)c1cccc2[nH]ccc12 |
| 1120 | CCSc1nc2ccc(NS(=O)(=O)c3ccc(CC)cc3)cc2s1 |
| 871 | CC1(C)C(=O)N(CC(=O)Nc2ccc(F)cc2F)c2ccccc21 |
| 982 | O=C(C1CCN(c2ncccc2-c2nc(-c3cccc(Cl)c3)no2)CC1)N1CCOCC1 |
| 1150 | CCC(C)NC(=O)c1cn(C)nc1S(=O)(=O)N1CCN(c2cc(Cl)ccc2C)CC1 (stereo unspecified) |
| 1060 | CCc1ccc(-c2noc(Cn3c(=O)n(-c4cccc(OC)c4)c(=O)c4sccc43)n2)cc1 |

| RP-LC retention time [s] | SMILES |
| --- | --- |
| 930 | O=C(CSC1CCc2ccccc2NC1=O)Nc1ccc(Cl)cc1Cl (stereo unspecified) |
| 901 | Cc1nc(-c2csc(S(=O)(=O)N3CCCC(C(=O)NCCc4ccccc4)C3)c2)no1 (stereo unspecified) |
| 859 | Cc1ccc(CNC(=O)c2sc(Nc3ccc(F)cn3)nc2C)cc1 |
| 724 | CCNC(=O)N1CCC(c2noc(-c3ccccc3)n2)C1 (stereo unspecified) |
| 552 | CCN1CCN(CCCNC(=O)C2CCCN(c3nc4cccnc4s3)C2)CC1 (stereo unspecified) |
| 893 | COCc1nnc(C(=O)Nc2ccc(C(=O)NCCc3c[nH]c4ccc(Cl)cc34)cc2)s1 |
| 735 | CCOC(=O)N1CCN(C(=O)c2cc(-c3ccco3)on2)CC1 |
| 894 | Cc1cc2nn(CC(=O)N3CCC(C)CC3)c(=O)n2c(-c2cccc(Cl)c2)n1 |
| 712 | COc1ccc(N2C(=O)N[C@H]3C[C@@]2(C)Oc2c(OC)cccc23)c(OC)c1 |
| 808 | CCS(=O)(=O)N1CCCc2cc(C(=O)NCC(C)C)ccc21 |
| 629 | Cc1ccc(NC(=O)N2CCc3cn(C)c4cccc(c34)C2)cc1 |
| 803 | CCOC(=O)c1c(C)n(C)c2ccc(O)cc12 |
| 1310 | Cc1ccc(-c2csc(-n3nc(C)c(CC(=O)N4CCc5ccccc5C4)c3C)n2)cc1 |
| 746 | CC1(C)Oc2ccc(C#N)cc2[C@@H](OC2=CC(=O)CC2)[C@@H]1O |
| 1000 | CCn1c(=O)c2ccccc2n(Cc2nc(-c3cc(OC)cc(OC)c3)no2)c1=O |
| 800 | COc1ccc(NC(=O)Cn2nc(C(=O)N3CCCC3)c3ccccc32)cc1 |
| 592 | CCOC(=O)CNC(=O)NCCn1c(-c2ccc(F)cc2)nc2ccccc21 |
| 1030 | O=C(OCn1nnc2ccccc2c1=O)c1ccccc1[N+](=O)[O-] |
| 802 | CCN1C(=O)c2cccnc2Sc2cc(NC(=O)c3ccccn3)ccc21 |
| 892 | CCc1cccc(NC(=O)C2CCN(S(=O)(=O)c3cc(C(=O)N4CCCC4)cs3)CC2)c1 |
| 926 | O=C(CCN1C(=O)C2C3C=CC(C3)C2C1=O)Nc1nc(-c2ccccc2)cs1 (stereo unspecified) |
| 755 | CCCNC(=O)C1CCCN(c2cnc3nc(CC)c(CC)nc3c2)C1 (stereo unspecified) |
| 1080 | COC(=O)CC1=CC(SCC(=O)N2CCN(c3ccccc3)CC2)=Nc2ccccc2N1 |

| RP-LC retention time [s] | SMILES |
| --- | --- |
| 828 | CCCCNC(=O)C1CCCN(C(=O)c2cc(C)cc(C)c2)C1 (stereo unspecified) |
| 712 | O=C(NC1(c2nc(-c3cnccn3)no2)CCCCC1)c1ccco1 |
| 715 | O=C(NC1CCN(c2cc(-c3ccc(Cl)cc3)[nH]n2)C1)c1ccc2c(c1)OCO2 (stereo unspecified) |
| 790 | Cc1ccc(S(=O)(=O)NCC(c2cccnc2)c2cn(C)c3ccccc23)cc1C (stereo unspecified) |
| 680 | CN(C)C(=O)c1ccc2c(c1)N(CC(=O)Nc1ccccn1)C(=O)C1CCCCN21 (stereo unspecified) |
| 728 | COCCNC(=O)CN1C(=O)C2CCCCN2c2ccc(S(=O)(=O)N3CCCC3)cc21 (stereo unspecified) |
| 1050 | CCCCOc1ccc(-c2cc3c4nn(CC(=O)NC5CCCC5)c(=O)n4ccn3n2)cc1 |
| 686 | O=S(=O)(NCCc1ccsc1)c1cccnc1 |
| 847 | O=C(NC(c1ccccc1)c1nnc(N2CCCCC2)o1)c1ccc2c(c1)OCO2 (stereo unspecified) |
| 637 | Cc1cc(-c2nnc(-c3ccc(F)cc3)o2)c(C)n1CC(=O)NCc1cccnc1 |
| 859 | COc1ccc(N2C=C(C(=O)N3CCCCC3)S(=O)(=O)c3ccccc32)cc1 |
| 1100 | COc1ccc(-c2csc(Nc3ccc(Br)cn3)n2)cc1OC |
| 643 | N#Cc1ccc(C(=O)Nc2ccc(-c3nnc4n3CCCC4)cc2)cc1 |
| 797 | CCC(=O)N(C1CCOCC1)C1CCN(S(=O)(=O)c2ccccc2F)CC1 |
| 721 | CCC(=O)Nc1ccc(C2(C(=O)N3CCOCC3)CCCCC2)cc1 |
| 961 | Cc1nc(-c2ccc3c(c2)CCN3C(=O)c2ccc(F)cc2)cs1 |
| 583 | COCCNC(=O)Nc1ccc(CCc2nc3ccccc3n2C)cc1 |
| 735 | Cc1ccc(CNC(=O)c2[nH]c3cc(C)sc3c2CN2CCOCC2)cc1 |
| 1190 | Cc1ccc(C)c(-c2nc(-c3cccc(-c4ccn[nH]4)c3)no2)c1 |
| 827 | CCS(=O)(=O)N1CCCN(C2=NS(=O)(=O)C(c3ccc(C)cc3)=C2C)CC1 |

| SMILES | RP-LC retention time [s] |
| --- | --- |
| CNC(C)Cc1ccccc1OC (stereo unspecified) | 646 |
| COc1c2c(cc3c1OCO3)CCN(C)C2 | 598 |
